Measurements from article PMC9313812, “The Pseudo‐Natural Product Rhonin Targets RHOGDI” (Angewandte Chemie (International Ed. in English), 2022).
Values after ≈ are worked out from the molar mass of the structure shown.

What was measured:
[1] = system: Ptch1 and Gli1 expression in C3H/10T1/2 cells; test: RT-qPCR of Hh target genes; type: cell-based, mouse; settings: 1.5 μM purmorphamine, 96 h
Procedure: three times with PBS and mounted on glass slides using Aqua Polymount (Polysciences Inc).
Images were acquired as Z-sections with Leica SP5 confocal microscope using a 63x 1.40 NA
Oil objective (Leica Microsystems CMS GmbH, Mannheim, Germany). Image analysis was
performed using the software ImageJ. Briefly, Z-stacks were converted to intensity sum
projections, after previous background subtraction. For quantification, cilia were identified and
marked based on the acetylated-tubulin staining intensities and the intensities of the anti-
Smoothened antibody were measured within these areas. Results were visualized and
significances were assessed using an unpaired t-test (confidence interval of 95%) with the
software GraphPad Prism 7, GraphPad software, USA). Three independent biological
replicates were performed and for each replicate at least 100 cilia per condition were analyzed.
Reverse transcription- quantitative PCR (RT-qPCR)
C3H10T1/2 cells were seeded (1×10^5 per well) in 6-well plates. 48 h later cells were treated […]
DNase I digestion step. The concentration of purified RNA was determined by means of the […]
QuantiTect Reverse Transcription Kit (Qiagen) according to the manufacturer’s protocol. […]
determined by means of quantitative RT-PCR using the QuantiFast SYBR Green PCR Kit […]
genes. The expression levels of Ptch1 and Gli1 were determined using the 2−ΔΔCt method.[6] […]

Shh-LIGHT2 cells = test: GLI-dependent reporter gene assay (RGA); type: cell-based; settings: for Inhibition of GLI-dependent reporter gene expression (in words): Shh-LIGHT2 cells
Procedure: using a three-fold dilution series starting from a concentration of 30 μM. Half-maximal inhibitory concentrations (IC50) were calculated using the Quattro software suite (Quattro Research, Planegg, Germany) or GraphPad Prism 7 (GraphPad, USA). […]
GLI-dependent reporter gene assay
Shh-LIGHT2 cells were seeded (2.5×10^4 per well) in 96-well plates. After incubation for 16 h, medium was replaced by low serum-containing medium (0.5% FCS) supplemented with 1.5 μM purmorphamine and various concentrations of the compounds or DMSO as a control and cells were incubated for 48 h. […]

[2] = Kinetic solubility determination; type: physicochemical; settings: for solubility kinetic: aqueous buffer, pH 7.4, aqueous buffer, kinetic from dmso stock, Table S9
Procedure: (§1) (1 picture or pasted object on this page, not shown here)
Each sample was tested in triplicate.

RHOGDI1-RAC1 interaction = biological target: T1, RHOGDI1-RAC1 interaction (Homo sapiens, UniProt P52565); test: Surface plasmon resonance: RHOGDI1-mediated displacement of GerGer-RAC1-GDP from immobilized liposomes; type: biochemical; settings: for Effect on kinetics of geranylgeranylated RAC1 extraction by RHOGDI1 (in words): SPR
T1 construct: GST; made in house; host or cells: RHOGDI1: E. coli; GerGer-RAC1: insect cells (TNAO38)
T1 sequence (P52565 1-204): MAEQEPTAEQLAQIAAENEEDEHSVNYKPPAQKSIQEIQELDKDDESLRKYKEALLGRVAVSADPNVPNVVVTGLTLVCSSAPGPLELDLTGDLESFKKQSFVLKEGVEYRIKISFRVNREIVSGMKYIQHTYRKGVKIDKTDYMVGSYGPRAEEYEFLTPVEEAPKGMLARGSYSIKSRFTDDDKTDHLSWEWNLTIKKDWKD
Procedure: RHOGDI1 displaced liposome -bound RAC1 from the surface of L1 chip with a koff of 0.016 […]
bound RAC1. Calculated rate constants by mono-exponential fitting of RU decays were 0.02 and 0.032 s-1 for RHOGDI1-mediated RAC1 displacement from the liposomes in the presence of 7a and 7d, respectively. (d) Competition-based fluorescence polarization experiments were performed by titration of 7a against 10 nM fluorescein-labelled atorvastatin and GST-PDEδ.
(e) Fluorescence polarization experiment using 10 nM probe 10 and titration of PDEδ.
as §1
Surface plasmon resonance (SPR)
Biacore® X100 instrument (Biacore, now GE Healthcare) was used to analyze the effect of 7a on the GerGer-RAC1-GDP and RHOGDI1 interaction. Liposomes suspended in SPR buffer (20 mM HEPES, pH 7.4, 50 mM NaCl, 5 mM MgCl2, 3 mM DTT) were immobilized by injecting 0.5 mM liposomes with flowrate of 5 µL/min on the surface of a Pioneer® L1 sensor chip (GE Healthcare) for the period of 900 s, as indicated by a constant signal. Unbound liposomes were removed by passing the buffer and 10 mM NaOH with flowrate of 5 µL/min for 30 s over the sensor chip. Buffer containing 15 µM GerGer-RAC1-GDP was passed with flowrate of 5 µL/min over the immobilized liposomes to facilitate the loading of GerGer-RAC1-GDP on to the liposomes. The effect of compounds on the association of GerGer-RAC1-GDP with liposomes and the resulting dissociation of GerGer-RAC1 upon passing 25 µM of RHOGDI1 was monitored by the change in the response unit signal.
Protein expression and purification
RHOGDI1 delta15, RHOGDI1 delta25, RHOGDI1-3 were produced in E. coli (XL1-Blue) as a GST recombinant protein as described previously.[9] In summary, protein were expressed in E.coli BL21 upon addition of IPTG overnight. Cell were collected and lysed in a lysis buffer, containing 30 mM Tris-NaOH pH 7.4, 150 mM NaCl, 1 mM DTT, and 5 mM MgCl2. Cells were further lysed using sonication. […]

Effect on kinetics of geranylgeranylated RAC1 extraction by RHOGDI1 (in words) (RHOGDI1-RAC1 interaction)	IC50 (Shh-LIGHT2 cells; Shh Light2, Figure 2a, mean of three independent experiments) [µM]	Solubility (in words) [2]	Rate constant of RHOGDI1-mediated RAC1 displacement from liposomes in presence of compound (RHOGDI1-RAC1 interaction; 25 µM RHOGDI1, mono-exponential fitting of RU decays) [s⁻¹]	Compound	Expression of the Hh target genes Ptch1 and Gli1 (in words) [1]	Inhibition of GLI-dependent reporter gene expression (in words) (Shh-LIGHT2 cells)	solubility kinetic [2] [µM]	Expression of the Hh target genes Ptch1 and Gli1 (remaining) ([1]; 5 μM, purmorphamine-treated cells = 100 %)
–	–	–	–	COC(=O)C1(C(CC(=O)c2cccnc2)c2ccccc2)N=C(c2ccc(Br)cc2)C2C(=O)N(C)C(=O)C21 (centres unmarked) [7l]	only slightly reduced	did not suppress	47.3 (≈ 27.2 µg/mL)	–
slowed down the kinetics	1.6	limited solubility	–	COC(=O)C1(C(CC(=O)c2ccccc2)c2ccccc2)N=C(c2ccc(Br)cc2)C2C(=O)N(C)C(=O)C21 (centres unmarked) [7a]	–	did not inhibit	5.7 (≈ 3.27 µg/mL)	approx. 50%
did not	–	–	0.032	COC(=O)C1(CCC(=O)c2ccc(F)cc2)N=C(c2ccc(Br)cc2)C2C(=O)N(C)C(=O)C21 (centres unmarked) [7d]	–	–	–	–
